Measured values from patent US7829555B1, “Drug targeting” (The University of Manchester, priority 1997, dated 2010).

Columns and labels:
[1] = Pharmacokinetics of the indoloquinone-acetyl salicylic acid conjugate in carrageenin air pouch rats (HPLC of blood, exudate, urine); format: in vivo, male Wistar albino rats; conditions: rats with carrageenin air pouch, 20 mg conjugate injected, exudate and urine collected after 2 or 4 hours
Procedure: Pharmacokinetics of the indoloquinone-acetyl salicylic acid conjugate of Example 5 were studied as follows:
Three groups of male Wistar albino rats (n=5) received sterile air dorsally (day 1). After two days a further 20 ml sterile air were administered. On day 5, 2 ml of a 1% carrageenin in sterile saline was injected directly into the air pouch. Animals were housed in metabolic cages. 100 mg of the indoloquinone-aspirin conjugate of Example 5 were suspended in ethanol (2 ml). 50 mg acetyl salicylic acid was dissolved in 2 ml ethanol. 2 ml ethanol was used as a control. 18 ml sterile water were added to each sample. On day 9, each animal was injected with 4 ml of solution as follows: Group A—20 mg indoloquinone-aspirin conjugate Group B—10 mg acetyl salicylic acid Group C—ethanol (control) The animals were then returned to their cages for periods of either 2 (nos. 1, 2 and 3 from each group) or 4 hours (nos. 4 and 5 from each group). After this time the animals were anaesthetized and blood and exudate collected. Available urine was also collected.

[2] = Reduction initiated release of aspirin, product analysis (HPLC) following γ-radiolysis; format: physicochemical; conditions: reduction by (CH3)2C.OH radical; N2O-saturated solution, quinone 100 μM, 2-propanol 8.3M (50%, v/v), pH 7.4
Procedure: The reduction initiated release of aspirin from the indoloquinone-acetyl salicylic acid conjugate of Example 5 was investigated by product analysis (HPLC) following γ-radiolysis of N2O-saturated solutions containing the quinone (100 μM) and 2-propanol (8.3M, 50%, v/v) at pH 7.4.
The radiation chemical yield (G) of the (CH3)2C.OH radical in N2O-saturated 2-propanol/water mixtures was determined by ferricyanide reduction to be G((CH3)2C.OH)=0.67±0.02 μmol J^−1 in 2-propanol/water (50%, v/v) and 0.72±0.03 μmol J^−1 in 1 M 2-propanol respectively. […] Loss of the parent quinone (G(−Q)=1.63±0.01 μmol J^−1) parallel the formation of the aspirin leaving group (LG) with G(LG)=1.40±0.15 μmol J^−1.
Indolequinone solutions were saturated with N2O gas in gas-tight vials before irradiation in a ^60Co source. […] A dose rate of 6-6.5 Gy min^−1 was used, as determined by Fricke dosimetry and radiation chemical yields were corrected for the absorbed dose in the various alcohol-water mixtures employed.
Product analysis following γ-radiolysis was performed by gradient HPLC separation on a 100 mm×4.6 mm base-deactivated reverse-phase column (Hichrom RPB, Hichrom, Reading, U.K.). […] Detection was at 232 nm using a Waters 486 detector (Watford, U.K.) and concentrations were determined from peak areas using Waters Maxima software.

## COC1=CC(=O)c2c(c(COC(=O)c3ccccc3OC(C)=O)c(C)n2C)C1=O [Example 5, 3-(2-Acetoxybenzoyloxy)methyl-1,2-dimethyl-5-methoxyindole-4,7-dione]
[1]
  Cleavage of conjugate in collected samples (HPLC): cleaved to liberate acetyl salicylic acid
[2]
  Formation of the aspirin leaving group, radiation chemical yield G(LG): 1.40 ± 0.15 µmol/J
  Loss of the parent quinone, radiation chemical yield G(−Q): 1.63 ± 0.01 µmol/J
